# Measurements: ChEMBL document CHEMBL1201862, “PubChem BioAssay data set” (2004)
# Calls of active or inactive are those of the source.
# Tests used:
# [1] = system: H9c2; assay: cells; type: functional, cell-based; conditions: Rattus norvegicus, H9c2, Myocardium;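 further: confirmatory concentration-response retest of ultra-high-throughput screening hits for modulation of myocardial damage; cell death induced by hydrogen peroxide oxidative stress; compound pretreatment for 60 min then peroxide exposure for 2 h; potency is for protecting the cells against peroxide damage rather than for killing them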
# [2] = system: Vero; assay: cells; type: functional, cell-based, Chlorocebus sabaeus; conditions: Chlorocebus sabaeus, Vero
# [3] = biological target: Nonstructural protein 1 (Influenza A virus, UniProt Q194T2); type: functional, Influenza A virus (A/California/07/2009(H1N1))
# Chain of Nonstructural protein 1 (Q194T2 whole entry): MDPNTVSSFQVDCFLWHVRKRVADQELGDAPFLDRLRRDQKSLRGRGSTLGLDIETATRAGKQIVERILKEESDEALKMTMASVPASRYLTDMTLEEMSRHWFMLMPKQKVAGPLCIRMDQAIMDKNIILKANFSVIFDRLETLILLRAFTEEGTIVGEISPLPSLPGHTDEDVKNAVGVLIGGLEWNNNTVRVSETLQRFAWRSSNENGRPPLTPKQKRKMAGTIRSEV
# [4] = biological target: Heat shock protein HSP 90-alpha (Homo sapiens, UniProt P07900); type: functional, organism-based
# [5] = system: HEK293; assay: inhibitors of LMP1-driven NF-kB reporter, dose response, cell-based, HEK293, luciferase, cherry-pick (AID 588343); type: functional; conditions: Homo sapiens
# [6] = system: Vero; assay: cells; type: functional, Chlorocebus sabaeus; conditions: Chlorocebus sabaeus, Vero
# [7] = biological target: Glucose-6-phosphate 1-dehydrogenase (Homo sapiens, UniProt P11413); assay: human G6PD enzyme inhibitors, dose response, selectivity assay for P. falciparum G6PD inhibitor project, biochemical, fluorescence (AID 504792); type: functional
# Chain of Glucose-6-phosphate 1-dehydrogenase (P11413 whole entry): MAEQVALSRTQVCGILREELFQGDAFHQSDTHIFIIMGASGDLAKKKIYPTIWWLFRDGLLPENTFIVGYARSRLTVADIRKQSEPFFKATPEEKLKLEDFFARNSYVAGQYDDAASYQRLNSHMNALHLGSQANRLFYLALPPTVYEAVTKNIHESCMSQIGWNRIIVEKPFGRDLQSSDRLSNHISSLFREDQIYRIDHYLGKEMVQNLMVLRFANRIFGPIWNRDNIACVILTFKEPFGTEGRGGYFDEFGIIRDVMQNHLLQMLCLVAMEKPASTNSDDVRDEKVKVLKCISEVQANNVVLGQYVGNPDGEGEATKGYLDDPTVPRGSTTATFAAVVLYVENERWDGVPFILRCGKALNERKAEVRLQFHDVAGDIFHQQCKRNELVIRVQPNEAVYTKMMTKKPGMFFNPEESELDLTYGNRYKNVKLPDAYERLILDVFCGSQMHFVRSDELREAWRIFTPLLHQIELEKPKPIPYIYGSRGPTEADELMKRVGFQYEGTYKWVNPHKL
# [8] = biological target: 26S proteasome non-ATPase regulatory subunit 14 (Homo sapiens, UniProt O00487); assay: inhibition of proteasome subunit RPN11 – biochemical, fluorescence polarization, uHTS hits, confirmation (AID 602368); type: functional
# Chain of 26S proteasome non-ATPase regulatory subunit 14 (O00487 whole entry): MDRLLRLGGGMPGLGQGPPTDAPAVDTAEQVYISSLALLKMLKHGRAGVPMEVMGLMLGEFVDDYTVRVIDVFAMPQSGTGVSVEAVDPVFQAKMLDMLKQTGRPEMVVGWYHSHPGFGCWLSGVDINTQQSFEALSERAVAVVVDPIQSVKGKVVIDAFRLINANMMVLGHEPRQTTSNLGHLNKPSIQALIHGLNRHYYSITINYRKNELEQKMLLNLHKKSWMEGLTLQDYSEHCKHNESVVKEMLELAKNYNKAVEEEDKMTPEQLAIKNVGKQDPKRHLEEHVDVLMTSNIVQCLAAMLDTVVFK
# [9] = biological target: Prothrombin (Bos taurus, UniProt P00735); assay: thrombin inhibition, dose response, biochemical, fluorescence polarization, uHTS hits (AID 602369); type: functional
# [10] = biological target: 72 kDa type IV collagenase (Homo sapiens, UniProt P08253); assay: Dose Response validation of uHTS RPN11 inhibitor hits using a MMP-2 Fluorescence assay.; type: functional
# Chain of 72 kDa type IV collagenase (P08253 whole entry): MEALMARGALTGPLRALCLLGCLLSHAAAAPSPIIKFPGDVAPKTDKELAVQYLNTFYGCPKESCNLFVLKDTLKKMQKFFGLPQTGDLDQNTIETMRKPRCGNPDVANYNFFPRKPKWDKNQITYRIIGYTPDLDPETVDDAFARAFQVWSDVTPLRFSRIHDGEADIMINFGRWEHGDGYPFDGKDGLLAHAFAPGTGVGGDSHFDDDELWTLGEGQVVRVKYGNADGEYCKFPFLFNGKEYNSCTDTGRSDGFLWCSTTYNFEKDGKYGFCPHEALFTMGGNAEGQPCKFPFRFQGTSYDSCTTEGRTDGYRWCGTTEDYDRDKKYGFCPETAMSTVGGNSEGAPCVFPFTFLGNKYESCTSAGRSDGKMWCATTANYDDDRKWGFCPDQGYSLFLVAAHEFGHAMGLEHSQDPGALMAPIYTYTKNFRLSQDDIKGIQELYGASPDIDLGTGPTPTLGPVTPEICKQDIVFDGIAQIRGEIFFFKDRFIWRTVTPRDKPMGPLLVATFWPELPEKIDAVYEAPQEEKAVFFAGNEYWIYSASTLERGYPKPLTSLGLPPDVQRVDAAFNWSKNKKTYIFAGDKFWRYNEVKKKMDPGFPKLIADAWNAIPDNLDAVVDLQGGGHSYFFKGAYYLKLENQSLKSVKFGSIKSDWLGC
# [11] = HEp-2 cell cytotoxicity, dose response, cytotoxicity control for RSV inhibitor project, HTS (AID 2410); type: functional; conditions: human respiratory syncytial virus
# [12] = Luminescence Cell-Based Dose Response HTS to Identify Inhibitors of 5'UTR Stem-Loop Driven Prion Protein mRNA Translation in H4 Neuroglioblastoma Cells. [Related pubchem assays: 1827 (Project Summary), 1813 (Primary HTS)]; type: functional
# [13] = inhibitors of firefly luciferase expression or activity, dose response, H4 neuroglioma cells, luminescence (AID 1990); type: functional, cell-based
# [14] = cells; type: functional, cell-based
# [15] = inhibitors of SNCA 5'UTR-driven reporter translation, confirmation, H4 neuroglioma cells, luminescence (AID 1988); type: functional, cell-based
# [16] = cells; type: functional, cell-based; remark: listed apart in the source
# [17] = HepG2 cell cytotoxicity, dose response, cytotoxicity control for Shn3 inhibitor project, CellTiter-Glo, cherry-picked (AID 624134); type: functional, cell-based
# [18] = control 3'UTR Renilla luciferase suppression, dose response, counter-screen for Shn3 inhibitor project, cell-based, Clone20-Shn3RL, cherry-picked (AID 624133); type: functional
# [19] = system: Vero; assay: Vero cell cytotoxicity, cytotoxicity control for flavivirus capping enzyme inhibitors (AID 588742); type: functional; conditions: Chlorocebus sabaeus
# [20] = Shn3 3'UTR reporter inhibitors, dose response, cell-based, Clone20 osteoblasts, firefly luciferase, cherry-picked (AID 624132); type: functional;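 further: firefly luciferase luminescence from reporter carrying the Shn3 3'UTR in osteoblasts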
# [21] = biological target: T1, Corticotropin-releasing factor receptor 2/Corticotropin-releasing factor-binding protein (Homo sapiens, UniProt P24387+Q13324); assay: Dose Response confirmation of uHTS hits for small molecule antagonists of the CRF-binding protein and CRF-R2 receptor complex.; type: functional; conditions: read-out: IC50_Mean
# T1 sequence (Q13324 whole entry): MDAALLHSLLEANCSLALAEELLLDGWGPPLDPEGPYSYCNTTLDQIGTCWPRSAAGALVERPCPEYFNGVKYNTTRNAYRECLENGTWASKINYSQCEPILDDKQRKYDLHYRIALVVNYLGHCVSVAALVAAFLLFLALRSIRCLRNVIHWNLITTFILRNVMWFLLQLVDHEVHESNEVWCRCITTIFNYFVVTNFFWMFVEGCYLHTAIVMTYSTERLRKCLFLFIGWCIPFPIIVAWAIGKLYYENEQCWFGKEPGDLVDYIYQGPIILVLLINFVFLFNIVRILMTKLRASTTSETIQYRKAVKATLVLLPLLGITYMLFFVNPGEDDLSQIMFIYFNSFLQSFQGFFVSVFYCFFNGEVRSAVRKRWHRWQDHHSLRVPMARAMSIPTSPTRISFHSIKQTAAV
# T1 sequence (P24387 whole entry): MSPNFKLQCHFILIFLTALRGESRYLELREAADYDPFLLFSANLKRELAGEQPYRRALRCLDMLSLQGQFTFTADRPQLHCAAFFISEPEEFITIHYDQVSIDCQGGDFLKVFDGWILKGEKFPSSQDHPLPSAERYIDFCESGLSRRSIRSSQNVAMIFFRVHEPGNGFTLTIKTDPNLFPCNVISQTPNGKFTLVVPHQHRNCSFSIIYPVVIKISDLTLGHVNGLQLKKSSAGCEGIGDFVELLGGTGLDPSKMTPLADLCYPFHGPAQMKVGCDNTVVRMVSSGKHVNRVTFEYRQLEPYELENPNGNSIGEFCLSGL
# [22] = biological target: T1, Corticotropin-releasing factor receptor 2/Corticotropin-releasing factor-binding protein; assay: activators of CRF receptor 2 with binding protein – uHTS hits, confirmation (AID 602473); type: functional; conditions: read-out: EC50_Mean
# [23] = biological target: T2, Sentrin-specific protease 6 (Homo sapiens, UniProt Q9GZR1); type: functional;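 further: Luminescence-based dose-response confirmatory assay of SENP6 inhibition, following up an ultra-high-throughput screen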
# T2 sequence (Q9GZR1 whole entry): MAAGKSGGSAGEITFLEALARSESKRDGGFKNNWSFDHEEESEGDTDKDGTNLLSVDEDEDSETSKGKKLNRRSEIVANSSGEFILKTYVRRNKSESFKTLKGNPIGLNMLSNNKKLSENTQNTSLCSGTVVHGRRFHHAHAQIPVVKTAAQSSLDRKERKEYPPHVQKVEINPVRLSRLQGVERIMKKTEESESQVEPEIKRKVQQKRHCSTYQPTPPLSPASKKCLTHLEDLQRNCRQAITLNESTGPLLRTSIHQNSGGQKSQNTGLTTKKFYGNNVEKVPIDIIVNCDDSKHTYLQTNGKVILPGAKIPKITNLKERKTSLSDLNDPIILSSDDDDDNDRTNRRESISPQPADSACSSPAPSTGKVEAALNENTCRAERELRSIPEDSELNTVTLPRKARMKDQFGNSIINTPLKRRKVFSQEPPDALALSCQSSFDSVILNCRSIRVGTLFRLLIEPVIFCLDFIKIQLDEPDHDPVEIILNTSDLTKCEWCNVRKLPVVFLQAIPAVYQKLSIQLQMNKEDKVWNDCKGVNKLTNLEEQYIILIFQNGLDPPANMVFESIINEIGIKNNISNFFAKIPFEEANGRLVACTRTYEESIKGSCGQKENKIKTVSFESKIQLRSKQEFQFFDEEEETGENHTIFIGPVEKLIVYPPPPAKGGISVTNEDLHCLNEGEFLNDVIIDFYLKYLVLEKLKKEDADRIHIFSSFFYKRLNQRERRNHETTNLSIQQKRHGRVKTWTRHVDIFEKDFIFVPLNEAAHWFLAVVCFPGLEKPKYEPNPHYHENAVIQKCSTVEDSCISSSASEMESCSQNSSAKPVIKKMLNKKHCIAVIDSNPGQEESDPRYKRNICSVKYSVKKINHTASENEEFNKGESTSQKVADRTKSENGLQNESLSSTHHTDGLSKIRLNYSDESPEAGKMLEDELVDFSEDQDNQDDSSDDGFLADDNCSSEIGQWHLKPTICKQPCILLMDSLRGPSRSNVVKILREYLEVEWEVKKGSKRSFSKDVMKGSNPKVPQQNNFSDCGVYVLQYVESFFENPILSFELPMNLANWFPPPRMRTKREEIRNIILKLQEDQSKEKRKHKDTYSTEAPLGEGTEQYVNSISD
# [24] = biological target: T3, Sentrin-specific protease 7 (Homo sapiens, UniProt Q9BQF6); type: functional;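 further: Luminescence-based dose-response confirmation of ultra-high-throughput screening hits, measuring inhibition of SENP7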
# T3 sequence (Q9BQF6 whole entry): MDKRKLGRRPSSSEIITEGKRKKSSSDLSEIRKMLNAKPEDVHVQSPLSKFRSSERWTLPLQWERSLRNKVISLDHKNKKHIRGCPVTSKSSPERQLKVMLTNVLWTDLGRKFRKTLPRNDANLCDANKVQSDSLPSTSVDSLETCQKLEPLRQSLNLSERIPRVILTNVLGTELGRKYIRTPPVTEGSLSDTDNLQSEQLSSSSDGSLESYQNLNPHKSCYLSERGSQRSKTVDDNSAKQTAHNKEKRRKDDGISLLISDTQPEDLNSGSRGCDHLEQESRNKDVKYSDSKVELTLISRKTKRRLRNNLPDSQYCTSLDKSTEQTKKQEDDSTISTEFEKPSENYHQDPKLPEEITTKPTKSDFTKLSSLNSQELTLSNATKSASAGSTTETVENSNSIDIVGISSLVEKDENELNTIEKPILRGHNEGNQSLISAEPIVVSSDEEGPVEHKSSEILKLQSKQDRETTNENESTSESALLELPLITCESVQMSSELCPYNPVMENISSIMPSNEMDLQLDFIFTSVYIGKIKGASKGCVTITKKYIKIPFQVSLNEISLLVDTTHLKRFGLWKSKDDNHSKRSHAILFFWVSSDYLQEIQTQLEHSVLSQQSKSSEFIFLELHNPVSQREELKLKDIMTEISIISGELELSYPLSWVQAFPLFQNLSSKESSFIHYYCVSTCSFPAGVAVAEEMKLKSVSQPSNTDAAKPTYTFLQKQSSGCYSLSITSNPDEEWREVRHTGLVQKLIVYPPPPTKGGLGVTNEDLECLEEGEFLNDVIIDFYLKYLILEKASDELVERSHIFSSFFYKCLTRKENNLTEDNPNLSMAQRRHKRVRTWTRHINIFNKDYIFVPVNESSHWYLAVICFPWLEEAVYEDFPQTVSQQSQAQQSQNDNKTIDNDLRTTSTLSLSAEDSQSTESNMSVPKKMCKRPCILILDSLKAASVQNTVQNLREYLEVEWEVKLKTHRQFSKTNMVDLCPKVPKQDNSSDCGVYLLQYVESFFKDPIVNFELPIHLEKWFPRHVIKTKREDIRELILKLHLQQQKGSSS
# [25] = biological target: T4, Sentrin-specific protease 8 (Homo sapiens, UniProt Q96LD8); type: functional;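 further: luminescence read-out of SENP8 inhibition, dose-response confirmation following an ultra-high-throughput screen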
# T4 sequence (Q96LD8 whole entry): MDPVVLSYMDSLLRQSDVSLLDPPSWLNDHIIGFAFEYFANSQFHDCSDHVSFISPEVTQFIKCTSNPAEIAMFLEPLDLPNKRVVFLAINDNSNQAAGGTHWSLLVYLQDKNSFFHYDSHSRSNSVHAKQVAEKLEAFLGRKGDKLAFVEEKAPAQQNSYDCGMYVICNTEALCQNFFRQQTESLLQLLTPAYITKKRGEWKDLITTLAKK
compound,measurement,setting,value
COc1ccccc1NC(=O)COc1ccc(C(=O)OCC(=O)NC(C)(C)C)cc1OC,IC50,[1],> 79 µM (inactive)
CC(=NNc1nc2ccccc2o1)c1ncccn1,IC50,[2],> 25 µM (active)
same,IC50,[3],0.739 µM (active)
same,AC50,[4],1.97 µM (active)
same,AC50,[5],1.23 µM (active)
same,CC50,[6],1.34 µM (active)
COc1ccc(CCn2c(NN=C3CCCC3)nc3c2c(=O)[nH]c(=O)n3C)cc1,IC50,[7],> 80 µM (inactive)
COc1ccc(OC)c(N2C(=O)/C(=C/Nc3c(C)n(C)n(-c4ccccc4)c3=O)C(=O)NC2=S)c1,IC50,[8],34.7 µM (active)
same,IC50,[9],51.9 µM (active)
same,IC50,[10],38.7 µM (active)
O=C(N/N=C/c1ccc(Cl)cc1Cl)c1ccc2[nH]cnc2c1,IC50,[8],20.9 µM (active)
same,IC50,[9],51.7 µM (active)
same,IC50,[10],> 100 µM (inactive)
N#C/C(=C\C1=C(N2CCOCC2)C(=C\c2ccc(Cl)cc2)/CC1)C(=O)Nc1ccccc1F,IC50,[8],6.46 µM (active)
same,IC50,[9],17 µM (active)
same,IC50,[10],> 100 µM (inactive)
same,CC50,[11],18.3 µM (active)
COc1ccc(C(NC(=O)c2cccnc2)c2cc(Cl)c3cccnc3c2O)cc1OC (stereo not given),EC50,[12],0.297 µM (active)
same,EC50,[13],13.3 µM (active)
same,EC50,[14],14.2 µM (active)
same,EC50,[15],> 120 µM (not active)
same,EC50,[16],> 350 µM (not active)
same,AC50,[17],2.7 µM (active)
same,AC50,[18],1.14 µM (active)
same,CC50,[19],3.92 µM (active)
same,AC50,[20],1.88 µM (active)
CCOc1ccc(NC(=O)c2ccc(N3CC4CC(C3)c3cccc(=O)n3C4)c(NC(=O)c3cccnc3)c2)cc1 (stereo not given),AC50,[5],> 350 µM (inactive)
O=C(Nc1ccccc1)c1nc[nH]c1C(=O)NCCCCCCNC(=O)c1[nH]cnc1C(=O)Nc1ccccc1,IC50,[1],> 79 µM (inactive)
COc1ccc(C=C2OC(O)=C(C(C)=O)C2=O)cc1,AC50,[5],6.16 µM (active)
CCn1c([N+](=O)[O-])nc2c1c(=O)[nH]c(=O)n2C,IC50,[7],> 80 µM (inactive)
CCOC(=O)Cc1csc(NC(=O)c2sc3nc4ccc(C)cc4cc3c2N)n1,IC50,[8],33.9 µM (active)
same,IC50,[9],77.9 µM (active)
same,IC50,[10],> 100 µM (inactive)
COc1cccc(CNc2ccc3[nH]c(O)nc3c2)c1OCc1ccc(F)cc1,IC50,[7],> 80 µM (inactive)
CCN1CCN(c2nc(O)c3c(n2)CCC3)CC1,IC50,[1],> 79 µM (inactive)
Cc1cccc(N2CCN(C(=O)CCc3nc(O)c4ccccc4n3)CC2)c1C,IC50,[21],> 47.1 µM (inactive)
same,EC50,[22],> 53 µM (inactive)
same,IC50,[1],> 79 µM (inactive)
CC(=O)Nc1nc(COc2ccc3ccccc3c2)cs1,IC50,[23],8.61 µM (active)
same,IC50,[24],5.88 µM (active)
same,IC50,[25],9.93 µM (active)
COc1ccccc1NC(=O)CSc1nc(N)c(C#N)cc1C#N,IC50,[8],36.2 µM (active)
same,IC50,[9],55.8 µM (active)
same,IC50,[10],> 100 µM (inactive)
O=C(COC(=O)Cn1[nH]c(=O)c2ccccc2c1=O)NNC(=O)c1ccc(Br)cc1,IC50,[1],17.2 µM (active)
